Laboratory results from US11622556B2, “Re-oiled and hyper-oiled lecithin carrier vehicles” (BIO-UP MIMETIC TECHNOLOGIES, INC., priority 2016, dated 2023).

What was measured:
Sinorhizobium meliloti = experiment: Microbial growth in 96-well plate, change in absorbance at 630 nm; format: cell-based; conditions: for overall potency order of essential oils: essential oils in de-oiled lecithin liposomes with triglyceride
mosquito larvae = format: in vivo; conditions: liposomal essential oils in pond water

Compound	overall potency order of essential oils (Sinorhizobium meliloti)	larvicidal activity order (mosquito larvae)	antimicrobial activity of marker label (Sinorhizobium meliloti; in liposome membrane)	activity as a single agent (Sinorhizobium meliloti; liposomes with 0, 20 or 45 wt % triglyceride, particularly notable at 45%)
C=C(C)[C@H]1CC=C(C)CC1 [d-limonene]	vetiver≈cinnamaldehyde>citronella≈sandalwood≈bayleaf≈patchouli≈rosewood>linalool≈d-limonene	thymol>cinnamaldehyde˜d-limonene>citronella˜eugenol>sandalwood oil˜coriander oil˜lavender oil	–	–
COc1cc(/C=C/C(=O)CC(=O)/C=C/c2ccc(O)c(OC)c2)ccc1O [diferuloylmethane, reference compound]	–	–	no antimicrobial activity	–
Cc1ccc(C(C)C)c(O)c1 [thymol]	–	thymol>cinnamaldehyde˜d-limonene>citronella˜eugenol>sandalwood oil˜coriander oil˜lavender oil	–	–
O=CC=Cc1ccccc1 [cinnamaldehyde]	vetiver≈cinnamaldehyde>citronella≈sandalwood≈bayleaf≈patchouli≈rosewood>linalool≈d-limonene	thymol>cinnamaldehyde˜d-limonene>citronella˜eugenol>sandalwood oil˜coriander oil˜lavender oil	–	greater activity than citronella
C=CCc1ccc(O)c(OC)c1 [eugenol]	–	thymol>cinnamaldehyde˜d-limonene>citronella˜eugenol>sandalwood oil˜coriander oil˜lavender oil	–	–
